According to paper PMC6100056, “Antitumor Effects and Delivery Profiles of Menahydroquinone-4 Prodrugs with Ionic or Nonionic Promoiety to Hepatocellular Carcinoma Cells” (Molecules : A Journal of Synthetic Chemistry and Natural …, 2018):
pIC50: −log10 of the molar value. Structures can show the parent of a compound that is named as a salt.

Legend:
[1] = test system: PLC/PRF/5 cells; assay: MKH delivery into HCC cells: intracellular MKO and MK-4 concentration-time profiles; assay type: in vitro ADME; settings: dose 25 μM, trapezoidal rule
From the text: (§1) When assessing the delivery of MKH into HCC cells by MKH-ester prodrugs, although the MKH levels in HCC cells should be quantified, it is difficult to determine an accurate MKH level owing to its rapidly oxidative characteristics to MK-4. Concomitant with γ-carboxylation in producing of vitamin K-dependent proteins, MKH is stoichiometrically converted to MK-4 epoxide (MKO), as shown in Figure 1. Thus, MKO levels in HCC cells can reflect the levels of MKH. In addition, the intracellular MK-4 in HCC cells after MKH-DMG treatment is the oxidative product of MKH, which is generated by hydrolysis of MKH-DMG [22]. The estimation rules of MKH in an earlier report were adopted in this study, in which the sum of MKO and MK-4 levels after MKH-ester prodrug treatment was regarded as the MKH level delivered into HCC cells. In MK-4 treatment, the MKH level was assessed by determining the level of MKO.
(§2) MKH delivery into HCC cells with 25 μM MKH-ester derivatives was determined after 1, 3, 6, 12 or 24 h of incubation. […] The AUC0–24h values for MKO (AUCMKO), MK-4 (AUCMK-4) and MKH (AUCMKH) were calculated using the trapezoidal rule (Table 3). […]
(§3) HCC cells were plated at 1.5 × 10^5 cells/well in 6-well plates and allowed to attach for 48 h. […] The protein concentration of the cell homogenate was determined using a BCA protein assay kit. […]

[2] = test system: SK-Hep-1 cells; assay: as above; assay type: in vitro ADME; settings: dose 25 μM, trapezoidal rule
From the text: as §1, §2, §3

[3] = test system: PLC/PRF/5 cells; assay: Cell viability assay (Cell Titer-Glo); assay type: cell-based; settings: for pIC50: Homo sapiens, 95% confidence interval in square brackets
Experimental: (§4) To assess the effects of MKH-ester prodrugs on HCC cell proliferation, DCP-positive (PLC/PRF/5) and DCP-negative (SK-Hep-1) HCC cell lines were treated with various concentrations of MKH-ACT, MKH-DMG, MKH-SUC or MK-4 up to 96 h, and cell viability was determined.
(§5) Cell viability was determined using a previously reported method. Briefly, PLC/PRF/5 and SK-Hep-1 cells were plated at 5.0 × 10^3 cells/well in 96-well plates and allowed to attach for 48 h. MK-4 and MKH-ACT were dissolved in 99.5% ethanol. MKH-SUC was dissolved in DMSO. MKH-DMG was dissolved in sterilized water. Stock solutions of each drug (50 mM) were diluted to the intended final concentrations with medium. Cells were exposed to MK-4, MKH-ACT, MKH-DMG or MKH-SUC for up to 96 h, and cell viability was evaluated using the Cell Titer-Glo Luminescent Cell Viability Assay (Promega, Madison, WI, USA) according to the manufacturer’s instructions. IC50 values were determined by a log [drug] vs. normalized response-variable slope analysis of GraphPad Prism, version 6.0 (GraphPad Software, San Diego, CA, USA).

[4] = test system: SK-Hep-1 cells; assay: Cell viability assay (Cell Titer-Glo); assay type: cell-based; settings: for pIC50: Homo sapiens, 95% confidence interval in square brackets
Experimental: as §4, §5

[5] = test system: cyclin D1 and CDK4 in PLC/PRF/5 cells; assay: Western blotting of cell cycle regulatory proteins; assay type: cell-based; settings: 24 h after treatment
Experimental: We previously reported that MKH-DMG regulates cell cycle-related proteins as a mechanism of MKH-DMG-induced growth inhibition in PLC/PRF/5, Hep3B and SK-Hep-1 cells. Thus, to clarify the mechanisms of the growth inhibition induced by the MKH-ester prodrugs, we analyzed cell cycle-related proteins using Western blotting (Figure 7).
HCC cells were plated at 1.5 × 10^5 cells/well in 6-well plates and allowed to attach for 48 h. Cells were treated with MK-4, MKH-ACT, MKH-DMG or MKH-SUC for 24 h. Western blotting was performed as described previously.

[6] = set-up: method as in PMID 21574174; settings: clinical dose (45 mg/day) or double dose (90 mg/day); trial in Japan; cited from earlier work

SMILES | melting point | AUC0–24h for MK-4 [1] | AUC0–24h for MK-4 [2] | Inhibition of cell viability of the control ([3]; 40–60 μM, 96 h) | pIC50 ([3]; 72 h) | pIC50 ([3]; 96 h) | Inhibition of cell viability of the control ([4]; 60 μM, 72 h) | Inhibition of cell viability of the control ([4]; 60 μM, 96 h) | Inhibition of cell viability of the control ([4]; 20–40 μM, 96 h) | pIC50 ([4]; SK-HEP1, 72 h) | pIC50 ([4]; SK-HEP1, 96 h) | Effect on cyclin D1 and CDK4 expression compared with controls [5] | Effect on cumulative recurrence of HCC [6]
CC(C)=CCC/C(C)=C/CC/C(C)=C/CC/C(C)=C/Cc1c(C)c(OC(=O)CCC(=O)O)c2ccccc2c1OC(=O)CCC(=O)O (as salt: succinate) [MKH-SUC, Menahydroquinone-4 1,4-bis hemisuccinate] | 179 to 181 °C |  |  |  |  |  |  |  |  |  |  |  | 
CC(C)=CCC/C(C)=C/CC/C(C)=C/CC/C(C)=C/CC1=C(C)C(=O)c2ccccc2C1=O [MK-4, menaquinone-4, reference compound] |  | 12.2 ± 4.19 nmol·h·mg Protein^−1 | 41.6 ± 9.04 nmol·h·mg Protein^−1 | 30–40% | 3.73 | 4.06 | about 20% | 40% | 20% | 4.10 | 4.05 | did not affect | did not find any statistically significant improvement
